Results published in patent publication US20230372227A1, “PRESERVATIVE COMPRISING POLYLYSINE AND CAPRYLYL GLYCERYL ETHER FOR EXTERNAL-USE SKIN FORMULATIONS AND COSMETICS COMPOSITION COMPRISING SAME” (ACTIVON CO., LTD., priority 2020, published 2023).

Assays:
Test in all cases: Minimum inhibitory concentration (MIC) of preservatives
Format in all cases: cell-based
[1] = test system: Aspergillus brasiliensis (ATCC 16404); settings: Experimental Example 1; growth inhibited by about 95% or more; about 10^6 CFU/ml; about 25° C., 24 to 48 hours
Procedure: (§1) In this experimental example, in order to evaluate the antimicrobial effect of the preservatives for skin external preparations, prepared in Examples 1 to 5, the minimum inhibitory concentrations (MICs) of the preservative of each Example against bacteria or fungi, including Escherichia coli (ATCC 8739), Pseudomonas aeruginosa (ATCC 9027), Staphylococcus aureus (ATCC 6538), Candida albicans (ATCC 10231), and Aspergillus brasiliensis (ATCC 16404), were measured.
(§2) Specifically, each of the preservatives for skin external preparations, prepared in Examples 1 to 5, was diluted to about 13% to about 25%, and each of the dilutions was further serially diluted 1:1 (10 times). Thereby, samples of various concentrations (about 0.05% to about 10%) for each of the preservatives for skin external preparations, prepared in Examples 1 to 5, were prepared. Each of the obtained samples was added to tryptic soy broth (TSB) medium or potato dextrose agar (PDA) medium. In about 10 ml of the medium to which each sample was added, each type of bacteria or fungi described above was seeded so that the final concentration of the bacteria or fungi was about 10^6 CFU/ml, and then the bacteria were cultured at about 32° C. for about 24 hours to 48 hours, and fungi were cultured at about 25° C. for about 24 hours to 48 hours. Thereafter, the minimum inhibitory concentration (MIC) of each sample capable of inhibiting the growth of the bacteria or fungi by about 95% or more was determined by observing the state of the bacterial or fungal culture medium. The growth of normal bacteria in a medium to which no sample was added was measured and used as a positive control, and the MIC for the growth of bacteria or fungi in a medium to which polyepsilon-lysine, caprylyl glyceryl ether, or propylene glycol was added alone was measured and used as a control.
(§3) In this experimental example, in order to evaluate the antimicrobial effect of a preservative for a skin external application comprising polylysine, caprylyl glyceryl ether and a glycol compound at a weight ratio of 0.1 to 5:10 to 30:65 to 75, the minimum inhibitory concentrations (MICs) of the preservative of each Example against bacteria or fungi, including Escherichia coli (ATCC 8739), Pseudomonas aeruginosa (ATCC 9027), Staphylococcus aureus (ATCC 6538), Candida albicans (ATCC 10231), and Aspergillus brasiliensis (ATCC 16404), were measured. Polyepsilon-lysine was used as the polylysine, and propylene glycol, butylene glycol, or pentylene glycol was used as the glycol compound.
(§4) Each of the preservatives for skin external preparations was diluted to about 10%, and each of the dilutions was further serially diluted 1:1 ([…]). Thereby, samples of various concentrations (about 0.01% to about 10%) for each of the preservatives for skin external preparations were prepared. Each of the obtained samples was added to tryptic soy broth (TSB) medium or potato dextrose agar (PDA) medium. In about 10 ml of the medium to which each sample was added, each type of bacteria or fungi described above was seeded so that the final concentration of the bacteria or fungi was about 10^6 CFU/ml, and then the bacteria were cultured at about 32° C. for about 24 hours to 48 hours, and fungi were cultured at about 25° C. for about 24 hours to 48 hours. […] The growth of normal bacteria in a medium to which no sample was added was measured and used as a positive control.

[2] = test system: Escherichia coli (ATCC 8739); settings: Experimental Example 1; growth inhibited by about 95% or more; about 10^6 CFU/ml; about 32° C., 24 to 48 hours
Procedure: as §1, §2, §3, §4

[3] = test system: Candida albicans (ATCC 10231); settings: Experimental Example 1; growth inhibited by about 95% or more; about 10^6 CFU/ml; about 25° C., 24 to 48 hours
Procedure: as §1, §2, §3, §4

[4] = test system: Pseudomonas aeruginosa (ATCC 9027); settings: Experimental Example 1; growth inhibited by about 95% or more; about 10^6 CFU/ml; about 32° C., 24 to 48 hours
Procedure: as §1, §2, §3, §4

[5] = test system: Staphylococcus aureus (ATCC 6538); settings: Experimental Example 1; growth inhibited by about 95% or more; about 10^6 CFU/ml; about 32° C., 24 to 48 hours
Procedure: as §1, §2, §3, §4

- MIC (%, w/w) of sample A. brasiliensis [1]: >10 %, w/w
- MIC (%, w/w) of sample E. coli [2]: >10 %, w/w
- MIC (%, w/w) of sample C. albicans [3]: >10 %, w/w
- MIC (%, w/w) of sample P. aeruginosa [4]: >10 %, w/w
- MIC (%, w/w) of sample S. aureus [5]: >10 %, w/w
SMILES: CC(O)CO (centres unmarked) [Propylene glycol]
